Data: the kinase profiling compilation of Christmann-Franck et al. (2016)

Tests used:
Assay in all cases: radiometric filter-binding kinase assay, Kinase HotSpot
Conditions in all cases: compound 0.5 µM; ATP 10 µM
[1] = target: YES1 (human) (UniProt P07947)
[2] = target: STK24 (human) (UniProt Q9Y6E0)
[3] = target: PLK3 (human) (UniProt Q9H4B4)
[4] = target: MST4 (human) (UniProt Q9P289)
[5] = target: DSTYK (human) (UniProt Q6XUX3)
[6] = target: HCK (human) (UniProt P08631)
[7] = target: WNK2 (human) (UniProt Q9Y3S1)
[8] = target: AURKA (human) (UniProt O14965)
[9] = target: EPHA5 (human) (UniProt P54756)
[10] = target: DYRK2 (human) (UniProt Q92630)
DYRK2 (human), sequence (Q92630 whole entry, looked up): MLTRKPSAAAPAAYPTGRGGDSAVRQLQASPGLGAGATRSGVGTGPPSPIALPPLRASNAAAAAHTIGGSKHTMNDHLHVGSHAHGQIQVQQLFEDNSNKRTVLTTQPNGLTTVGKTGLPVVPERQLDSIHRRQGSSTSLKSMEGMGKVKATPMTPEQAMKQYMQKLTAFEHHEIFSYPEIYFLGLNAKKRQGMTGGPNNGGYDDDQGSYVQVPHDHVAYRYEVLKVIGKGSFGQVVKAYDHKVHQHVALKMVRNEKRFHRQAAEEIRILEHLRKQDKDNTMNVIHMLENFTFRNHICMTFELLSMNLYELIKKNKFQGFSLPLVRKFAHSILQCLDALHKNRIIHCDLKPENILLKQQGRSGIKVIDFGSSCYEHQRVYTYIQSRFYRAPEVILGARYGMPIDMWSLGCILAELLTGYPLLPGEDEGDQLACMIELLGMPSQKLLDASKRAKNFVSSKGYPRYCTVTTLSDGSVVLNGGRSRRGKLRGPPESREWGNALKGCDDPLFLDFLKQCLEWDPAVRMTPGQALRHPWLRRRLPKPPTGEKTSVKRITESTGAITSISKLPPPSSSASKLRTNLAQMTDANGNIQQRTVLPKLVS

[11] = target: MAP2K1 (human) (UniProt Q02750)
[12] = target: BTK (human) (UniProt Q06187)
[13] = target: PRKACA (human) (UniProt P17612)
[14] = target: MARK3 (human) (UniProt P27448)
MARK3 (human), sequence (P27448 whole entry, looked up): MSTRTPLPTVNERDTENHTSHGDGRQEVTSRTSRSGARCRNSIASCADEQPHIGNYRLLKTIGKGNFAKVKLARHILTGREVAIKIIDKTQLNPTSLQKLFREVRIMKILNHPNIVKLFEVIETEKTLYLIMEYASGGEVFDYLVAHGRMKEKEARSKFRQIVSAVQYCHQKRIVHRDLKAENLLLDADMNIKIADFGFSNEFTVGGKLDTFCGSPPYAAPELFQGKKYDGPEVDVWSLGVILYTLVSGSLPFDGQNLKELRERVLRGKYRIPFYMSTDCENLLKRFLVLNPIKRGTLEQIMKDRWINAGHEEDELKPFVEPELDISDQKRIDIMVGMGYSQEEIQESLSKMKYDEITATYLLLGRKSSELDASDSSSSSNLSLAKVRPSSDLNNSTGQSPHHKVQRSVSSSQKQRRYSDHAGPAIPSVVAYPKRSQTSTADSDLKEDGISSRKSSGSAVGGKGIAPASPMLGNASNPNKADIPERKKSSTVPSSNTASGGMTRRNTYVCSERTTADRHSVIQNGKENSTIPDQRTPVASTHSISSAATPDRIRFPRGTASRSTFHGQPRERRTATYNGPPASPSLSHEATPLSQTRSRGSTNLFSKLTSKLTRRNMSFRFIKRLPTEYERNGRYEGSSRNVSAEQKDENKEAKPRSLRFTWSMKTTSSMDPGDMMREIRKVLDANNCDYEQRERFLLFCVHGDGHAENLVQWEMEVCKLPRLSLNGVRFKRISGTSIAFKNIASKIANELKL

[15] = target: BMX (human) (UniProt P51813)
[16] = target: CLK4 (human) (UniProt Q9HAZ1)
[17] = target: ERBB2 (human) (UniProt P04626)
[18] = target: PRKCA (human) (UniProt P17252)
[19] = target: KDR (human) (UniProt P35968)
[20] = target: WEE1 (human) (UniProt P30291)
[21] = target: FGR (human) (UniProt P09769)
FGR (human), sequence (P09769 whole entry, looked up): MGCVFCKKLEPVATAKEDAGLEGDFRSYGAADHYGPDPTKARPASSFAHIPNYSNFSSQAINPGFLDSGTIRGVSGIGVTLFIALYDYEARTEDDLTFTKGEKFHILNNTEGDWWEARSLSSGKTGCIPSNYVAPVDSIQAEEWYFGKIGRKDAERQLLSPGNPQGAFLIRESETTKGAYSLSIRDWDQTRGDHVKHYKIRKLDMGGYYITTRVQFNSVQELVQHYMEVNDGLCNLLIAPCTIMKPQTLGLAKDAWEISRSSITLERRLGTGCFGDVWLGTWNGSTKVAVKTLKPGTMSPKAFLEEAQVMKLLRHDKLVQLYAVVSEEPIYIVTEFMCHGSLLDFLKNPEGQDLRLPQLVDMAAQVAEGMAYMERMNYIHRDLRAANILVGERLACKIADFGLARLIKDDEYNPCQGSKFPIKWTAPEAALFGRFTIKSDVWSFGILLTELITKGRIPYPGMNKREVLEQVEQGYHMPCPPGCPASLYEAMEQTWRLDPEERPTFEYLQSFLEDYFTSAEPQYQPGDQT

[22] = target: PRKCB1 (human) (UniProt P05771)
PRKCB1 (human), sequence (P05771 whole entry, looked up): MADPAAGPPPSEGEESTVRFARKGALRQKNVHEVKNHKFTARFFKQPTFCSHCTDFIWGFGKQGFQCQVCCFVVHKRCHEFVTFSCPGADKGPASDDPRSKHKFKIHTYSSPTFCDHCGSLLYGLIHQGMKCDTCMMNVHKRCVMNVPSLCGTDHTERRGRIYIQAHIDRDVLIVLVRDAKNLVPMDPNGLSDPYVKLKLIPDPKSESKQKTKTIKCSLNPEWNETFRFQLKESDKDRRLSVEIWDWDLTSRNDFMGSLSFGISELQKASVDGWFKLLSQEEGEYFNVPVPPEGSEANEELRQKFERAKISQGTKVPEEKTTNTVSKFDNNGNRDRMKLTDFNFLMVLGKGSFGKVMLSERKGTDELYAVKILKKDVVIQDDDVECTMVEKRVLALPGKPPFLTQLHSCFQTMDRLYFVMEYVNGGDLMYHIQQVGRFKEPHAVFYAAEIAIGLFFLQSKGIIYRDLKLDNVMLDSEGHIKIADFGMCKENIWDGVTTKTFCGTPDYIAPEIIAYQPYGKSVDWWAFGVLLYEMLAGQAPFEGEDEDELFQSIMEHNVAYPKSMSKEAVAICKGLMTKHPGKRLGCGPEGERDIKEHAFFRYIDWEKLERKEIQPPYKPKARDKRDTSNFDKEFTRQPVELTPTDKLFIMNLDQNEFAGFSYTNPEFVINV

[23] = target: MAP3K9 (human) (UniProt P80192)
[24] = target: CDC42BPB (human) (UniProt Q9Y5S2)
[25] = target: PTK2B (human) (UniProt Q14289)
[26] = target: SRPK3 (human) (UniProt Q9UPE1)
[27] = target: ITK (human) (UniProt Q08881)
ITK (human), sequence (Q08881 whole entry, looked up): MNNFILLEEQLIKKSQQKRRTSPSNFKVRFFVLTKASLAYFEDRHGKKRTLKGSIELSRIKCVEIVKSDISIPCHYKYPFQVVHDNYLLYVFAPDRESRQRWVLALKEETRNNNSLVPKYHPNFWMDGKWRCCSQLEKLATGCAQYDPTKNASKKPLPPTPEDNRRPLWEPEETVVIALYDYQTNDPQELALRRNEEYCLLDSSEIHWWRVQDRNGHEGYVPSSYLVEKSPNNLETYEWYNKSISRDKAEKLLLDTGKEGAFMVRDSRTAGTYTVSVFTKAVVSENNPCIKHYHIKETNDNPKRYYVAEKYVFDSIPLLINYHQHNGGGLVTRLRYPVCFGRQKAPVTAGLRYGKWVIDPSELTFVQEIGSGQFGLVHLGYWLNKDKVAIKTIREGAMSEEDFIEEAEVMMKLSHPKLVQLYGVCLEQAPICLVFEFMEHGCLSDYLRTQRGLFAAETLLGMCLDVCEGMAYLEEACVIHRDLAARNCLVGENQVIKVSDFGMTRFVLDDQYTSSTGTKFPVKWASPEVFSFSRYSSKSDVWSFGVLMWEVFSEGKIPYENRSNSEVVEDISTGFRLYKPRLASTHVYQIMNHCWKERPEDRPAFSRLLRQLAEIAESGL

[28] = target: STK4 (human) (UniProt Q13043)
[29] = target: TXK (human) (UniProt P42681)
TXK (human), sequence (P42681 whole entry, looked up): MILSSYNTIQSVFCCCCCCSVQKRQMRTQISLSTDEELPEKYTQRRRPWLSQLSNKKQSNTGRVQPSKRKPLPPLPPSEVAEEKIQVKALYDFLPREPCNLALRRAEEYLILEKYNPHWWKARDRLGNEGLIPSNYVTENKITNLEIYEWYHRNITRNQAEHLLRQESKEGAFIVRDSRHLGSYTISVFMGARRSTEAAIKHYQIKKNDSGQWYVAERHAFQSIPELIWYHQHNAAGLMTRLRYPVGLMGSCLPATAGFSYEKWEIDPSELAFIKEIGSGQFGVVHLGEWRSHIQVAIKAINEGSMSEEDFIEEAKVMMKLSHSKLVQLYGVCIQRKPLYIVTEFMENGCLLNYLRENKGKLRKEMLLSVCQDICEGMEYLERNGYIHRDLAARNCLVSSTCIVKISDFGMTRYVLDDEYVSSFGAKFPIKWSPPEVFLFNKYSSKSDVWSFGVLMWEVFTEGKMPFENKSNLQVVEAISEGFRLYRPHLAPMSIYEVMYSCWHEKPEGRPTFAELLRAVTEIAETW

[30] = target: NEK6 (human) (UniProt Q9HC98)
[31] = target: HIPK2 (human) (UniProt Q9H2X6)
[32] = target: CDK9 CCNK (human) (UniProt O75909+P50750)
[33] = target: FGFR3 (human) (UniProt P22607)
[34] = target: GSG2 (human) (UniProt Q8TF76)
[35] = target: FES (human) (UniProt P07332)
[36] = target: DAPK1 (human) (UniProt P53355)
[37] = target: RPS6KB2 (human) (UniProt Q9UBS0)
[38] = target: RPS6KA6 KD1 KD2 (human) (UniProt Q9UK32)
[39] = target: CSNK1D (human) (UniProt P48730)
CSNK1D (human), sequence (P48730 whole entry, looked up): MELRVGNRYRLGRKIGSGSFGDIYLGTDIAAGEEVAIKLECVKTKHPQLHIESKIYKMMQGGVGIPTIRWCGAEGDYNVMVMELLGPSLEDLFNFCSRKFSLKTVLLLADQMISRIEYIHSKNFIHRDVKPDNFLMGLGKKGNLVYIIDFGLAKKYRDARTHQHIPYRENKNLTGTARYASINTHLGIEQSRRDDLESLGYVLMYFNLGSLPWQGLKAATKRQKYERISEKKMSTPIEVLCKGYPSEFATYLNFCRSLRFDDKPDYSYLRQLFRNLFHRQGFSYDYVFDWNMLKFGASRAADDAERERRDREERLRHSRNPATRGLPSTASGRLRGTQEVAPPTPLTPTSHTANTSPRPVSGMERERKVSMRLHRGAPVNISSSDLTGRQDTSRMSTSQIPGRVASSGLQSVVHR

[40] = target: DCLK2 (human) (UniProt Q8N568)
[41] = target: PLK1 (human) (UniProt P53350)
[42] = target: SRC (human) (UniProt P12931)

DSTYK (human), sequence (Q6XUX3 whole entry, looked up): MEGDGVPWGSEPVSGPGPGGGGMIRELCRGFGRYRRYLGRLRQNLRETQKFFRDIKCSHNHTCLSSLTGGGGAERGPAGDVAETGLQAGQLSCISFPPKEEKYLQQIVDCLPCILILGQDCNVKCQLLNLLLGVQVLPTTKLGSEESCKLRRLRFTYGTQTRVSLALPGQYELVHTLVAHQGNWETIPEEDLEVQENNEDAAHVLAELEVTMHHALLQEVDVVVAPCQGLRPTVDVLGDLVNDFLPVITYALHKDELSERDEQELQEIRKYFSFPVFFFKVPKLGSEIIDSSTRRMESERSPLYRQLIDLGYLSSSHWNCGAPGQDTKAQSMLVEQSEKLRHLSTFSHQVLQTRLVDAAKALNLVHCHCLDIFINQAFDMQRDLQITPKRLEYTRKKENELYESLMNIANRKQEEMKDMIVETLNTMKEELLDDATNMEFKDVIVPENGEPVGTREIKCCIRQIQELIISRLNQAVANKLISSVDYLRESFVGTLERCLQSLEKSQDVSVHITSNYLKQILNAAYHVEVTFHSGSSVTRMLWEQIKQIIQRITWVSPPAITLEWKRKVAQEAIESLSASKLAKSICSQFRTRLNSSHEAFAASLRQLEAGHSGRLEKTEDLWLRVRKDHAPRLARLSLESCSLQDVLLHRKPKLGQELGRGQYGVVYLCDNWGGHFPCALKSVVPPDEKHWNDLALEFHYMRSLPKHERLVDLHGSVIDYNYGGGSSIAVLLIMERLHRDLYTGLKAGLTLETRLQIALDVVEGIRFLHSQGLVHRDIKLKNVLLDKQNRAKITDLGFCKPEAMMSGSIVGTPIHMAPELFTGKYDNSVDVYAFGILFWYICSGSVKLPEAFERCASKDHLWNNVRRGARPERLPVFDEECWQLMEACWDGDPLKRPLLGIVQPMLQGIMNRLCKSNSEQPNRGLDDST

SMILES: CN(C)C[C@H]1CCn2c(c(C3=C(c4cn(C)c5ccccc45)C(=O)NC3=O)c3ccccc32)C1
- residual activity [1]: 95.3%
- residual activity [2]: 66.5%
- residual activity [3]: 100%
- residual activity [4]: 78%
- residual activity [5]: 89.4%
- residual activity [6]: 95.3%
- residual activity [7]: 103%
- residual activity [8]: 87.7%
- residual activity [9]: 95.1%
- residual activity [10]: 102%
- residual activity [11]: 98.8%
- residual activity [12]: 103%
- residual activity [13]: 87.2%
- residual activity [14]: 92.4%
- residual activity [15]: 91.7%
- residual activity [16]: 111%
- residual activity [17]: 95.9%
- residual activity [18]: 2.58%
- residual activity [19]: 101%
- residual activity [20]: 101%
- residual activity [21]: 97.2%
- residual activity [22]: 3.71%
- residual activity [23]: 90.8%
- residual activity [24]: 103%
- residual activity [25]: 95.5%
- residual activity [26]: 100%
- residual activity [27]: 94.9%
- residual activity [28]: 80.1%
- residual activity [29]: 103%
- residual activity [30]: 94.6%
- residual activity [31]: 94.1%
- residual activity [32]: 43.5%
- residual activity [33]: 96.3%
- residual activity [34]: 100%
- residual activity [35]: 102%
- residual activity [36]: 94.1%
- residual activity [37]: 67.6%
- residual activity [38]: 2.94%
- residual activity [39]: 101%
- residual activity [40]: 97.8%
- residual activity [41]: 102%
- residual activity [42]: 101%

SMILES: O=C1NC(=O)/C(=C\c2ccc3nccnc3c2)S1
- residual activity [1]: 89.3%
- residual activity [2]: 93.2%
- residual activity [3]: 97.7%
- residual activity [4]: 91%
- residual activity [5]: 89.9%
- residual activity [6]: 92.2%
- residual activity [7]: 115%
- residual activity [8]: 97.2%
- residual activity [9]: 99.5%
- residual activity [10]: 39.8%
- residual activity [11]: 89.5%
- residual activity [12]: 104%
- residual activity [13]: 97.2%
- residual activity [14]: 94.3%
- residual activity [15]: 98.6%
- residual activity [16]: 47.5%
- residual activity [17]: 107%
- residual activity [18]: 102%
- residual activity [19]: 92.6%
- residual activity [20]: 83.1%
- residual activity [21]: 96.8%
- residual activity [22]: 96.9%
- residual activity [23]: 102%
- residual activity [24]: 91.3%
- residual activity [25]: 106%
- residual activity [26]: 91.4%
- residual activity [27]: 91.2%
- residual activity [28]: 95%
- residual activity [29]: 96.8%
- residual activity [30]: 109%
- residual activity [31]: 101%
- residual activity [32]: 86%
- residual activity [33]: 97.3%
- residual activity [34]: 38.8%
- residual activity [35]: 96.4%
- residual activity [36]: 105%
- residual activity [37]: 94.7%
- residual activity [38]: 87.6%
- residual activity [39]: 96.3%
- residual activity [40]: 94.3%
- residual activity [41]: 100%
- residual activity [42]: 102%

SMILES: O=C1Nc2ccccc2/C1=C1\Nc2ccccc2\C1=N/O
- residual activity [1]: 45.1%
- residual activity [2]: 62.6%
- residual activity [3]: 93%
- residual activity [4]: 75.3%
- residual activity [5]: 108%
- residual activity [6]: 60.2%
- residual activity [7]: 99.8%
- residual activity [8]: 21.3%
- residual activity [9]: 86.5%
- residual activity [10]: 79.1%
- residual activity [11]: 99.6%
- residual activity [12]: 59.3%
- residual activity [13]: 107%
- residual activity [14]: 85.8%
- residual activity [15]: 80.1%
- residual activity [16]: 59.2%
- residual activity [17]: 97.9%
- residual activity [18]: 97.7%
- residual activity [19]: 72.9%
- residual activity [20]: 87.1%
- residual activity [21]: 35.7%
- residual activity [22]: 94.7%
- residual activity [23]: 19.1%
- residual activity [24]: 99.5%
- residual activity [25]: 65.8%
- residual activity [26]: 97.5%
- residual activity [27]: 53%
- residual activity [28]: 18.8%
- residual activity [29]: 66.7%
- residual activity [30]: 92.2%
- residual activity [31]: 104%
- residual activity [32]: 59.7%
- residual activity [33]: 70.4%
- residual activity [34]: 65.6%
- residual activity [35]: 92.4%
- residual activity [36]: 83.2%
- residual activity [37]: 107%
- residual activity [38]: 52.2%
- residual activity [39]: 39.3%
- residual activity [40]: 88.5%
- residual activity [41]: 100%
- residual activity [42]: 65.1%
